Measured values: article PMC11984691, “Identifying ENO1 as a protein target of chlorogenic acid to inhibit cellular senescence and prevent skin photoaging in mice” (Aging Cell, 2024)

Legend:
Enolase 1 (ENO1) C399A = target: T1, Enolase 1 (ENO1) C399A (Homo sapiens, UniProt P06733, C399A); assay: MicroScale Thermophoresis with purified mutant ENO1; assay type: binding
T1 construct: recombinant human ENO1-C399A, pET28a, His-tag

Enolase 1 (ENO1) = target: T2, Enolase 1 (ENO1) (Homo sapiens, UniProt P06733); assay: MicroScale Thermophoresis with purified ENO1; also LC-MS/MS site mapping, CETSA, pull-down competition and enzyme activity inhibition; assay type: binding
T2 construct: recombinant wild-type human ENO1 (NP_001419.1), pET28a, His-tag
T2 sequence (P06733 2-434): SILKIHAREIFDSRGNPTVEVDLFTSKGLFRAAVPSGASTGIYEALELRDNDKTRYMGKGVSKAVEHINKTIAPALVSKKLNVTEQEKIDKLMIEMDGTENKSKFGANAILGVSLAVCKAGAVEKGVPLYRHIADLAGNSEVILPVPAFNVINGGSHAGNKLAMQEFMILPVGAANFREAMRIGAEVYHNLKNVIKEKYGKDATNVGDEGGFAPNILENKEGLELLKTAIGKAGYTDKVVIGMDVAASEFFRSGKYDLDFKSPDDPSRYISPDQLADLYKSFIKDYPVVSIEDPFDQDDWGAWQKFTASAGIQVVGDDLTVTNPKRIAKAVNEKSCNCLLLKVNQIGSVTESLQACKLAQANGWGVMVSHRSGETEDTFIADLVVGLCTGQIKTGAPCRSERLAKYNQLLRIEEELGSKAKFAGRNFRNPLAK

T1 sequence (P06733 2-434 C399A): as the sequence (P06733 2-434) above, with C398A counted along it

- Kd (Enolase 1 (ENO1) C399A): 130 µM
- Kd (Enolase 1 (ENO1)): 20 µM
SMILES: O=C(/C=C/c1ccc(O)c(O)c1)O[C@@H]1C[C@](O)(C(=O)O)C[C@@H](O)[C@H]1O [CGA, Chlorogenic acid]
